Our source for the IC50 values is patent US20240415819A1, “MACROCYCLIC COMPOUNDS AS PROTEASOME SUBUNIT BETA TYPE-5 INHIBITORS” (Lead Discovery Center GmbH, priority 2021, published 2024).

For experiment [1], the system named is hPMBC. The experiment is described as follows: Chymotrypsin-like ProteasomeGlo assay in hPBMC. Conditions: Homo sapiens; read-out: Pglo hPBMC. The experiment is classed as cell-based. An excerpt:
Chymotrypsin-like ProteasomeGlo assay in the B-cells isolated from PBMC's following compound addition (IC50). • 1. PBMC's will be isolated from human blood followed by B-cell isolation from the PBMC's using the Miltenyi Isolation Kit. • 2. This experiment will use the Chymotrypsin-like ProteasomeGlo read-out to generate IC50's following compound treatment. • 3. Dilute all compounds 1:100 for the assay. • 4. […] Repeat the DMSO transfer with lane 12. • 5. Lane 12 should not be seeded with any cells. Only medium! • 6. For all steps, make sure the samples and reagents remain cool! • 7. While dealing with the buffy coats, be careful to not let any exposed skin to be in direct contact with the blood.
For the initial steps and to make processing the buffy coats easier, separately process the buffy coats. • a. Cut the tube attached to the buffy coats carefully using a clean, sterile and fresh scalpel. • b. Transfer the blood into 2 individual 50 ml falcons. • c. Add an equal volume of DPBS to the blood in the falcons. • d. Add ˜20 ml of lymphocyte separating medium to two 50 ml falcons. • e. Carefully pour 15-20 ml of the blood+DPBS mix from step c. onto the lymphocyte separating medium from step d. • f. Centrifuge the falcons with the lymphocyte separating medium+blood mix at 800×g for 15 minutes using a swing-out rotor. • g. Following centrifugation, carefully remove the falcons from the centrifuge. • h. The following layers will be observed: • i. Aspirate the plasma layer off carefully without disturbing the different layers. • j. Remove the cell pellet using a pipette into two fresh 50 ml falcons. • k. Fill the falcons with the cells up to 50 ml with DPBS. • l. Centrifuge the falcons at 250×g for 10 minutes using a swing-out rotor (Brake-off). • m. Aspirate the complete DPBS off the cells without disturbing the cell pellet at the bottom of the falcon. • n. Re-suspend the cell pellet in 10 ml of 1×RBC lysis buffer. • o. Incubate the falcons at room temperature in the dark for 10 minutes. • p. After RBC lysis, centrifuge the tubes at 250×g for 10 minutes using a swing-out rotor (brake-off). • (*Note: If the cell pellet is still red or light red, repeat steps n. to p.!) • q. Re-suspend the cell pellet in DPBS up to 50 ml in the falcon. • r. Centrifuge the falcons at 250×g for 10 minutes using a swing-out rotor (Brake-off). • s. Aspirate the DPBS off the cells without disturbing the cell pellet at the bottom of the falcon. • t. Repeat the wash step as described in steps q. to s. 2× times more (total number of washes is 3×). • u. Aspirate the DPBS completely off the cell pellet after the last wash without disturbing the cell pellet. • v. Re-suspend the cell pellet in 20 ml of PBMC cell medium. • w.
• a. Remove the plates with cells from the incubator. • b. Take all the plates including the compound plate, intermediate plate and Staurosporine plate to the ECHO. • c. Click on “Open” in the ECHO software and select the protocol “QLI5_25ul_30 uM-Grenier”. • d. Follow the on-screen prompts and instructions once you click “Start” to insert the compound plate, intermediate plate and destination plates. • e. Change the final number of destination plates on the program. • f. Follow the on-screen prompts and instructions once you click “Start” to load the Staurosporine and destination plates. • g. Once all the compounds, DMSO and Staurosporine have been transferred, place the destination plates in a wet tissue box. • h. Place the destination plates back into the incubator and incubate at 37° C., 5% CO2 for 105 minutes. • i. Re-seal all the compound+Stauro diamond and intermediate plates and store in the dark. Chymotrypsin like ProteasomeGlo Assay • 1. Thaw the components of the ProteasomeGlo assay at room temperature including the ProteasomeGlo Buffer, the lyophilized Luciferin Detection Reagent and the Suc-LLVY-Glo Substrate. • 2. […]

For experiment [2], the target named is T1, β5 subunit of the human constitutive proteasome (CPS) (Homo sapiens, UniProt P28074).
T1 construct: purchased Boston Biochem E-360
Description: β5 inhibition assay, human constitutive proteasome (Suc-LLVY-AMC). Conditions: IC50 class, Suc-LLVY-AMC substrate. Format: biochemical. How it is done:
The enzymatic activity of the β5 subunit of the human constitutive proteasome (CPS) is analyzed. In another assay, which differs from the assay of the human constitutive proteasome only in using the human immunoproteasome (IPS) the enzymatic activity of the β5 subunit of the human immunoproteasome (IPS) is analyzed. […] Inhibition is indicated as IC50 [nM] (“-”=not measured).

Experiment [3] has as its system A549 (human lung carcinoma cell line). Description: Glo assay of A549 cells (Table 3; ProteasomeGlo plating scheme). Format: cell-based. Conditions: Homo sapiens; A549 cells; read-out: PGLo A549. In outline: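 IC50 values (nM) come from a cell-based chymotrypsin-like Proteasome-Glo luminescence assay. Compound exposure ran 105 min at 37° C.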

With `COC(=O)N(CC1NC(=O)[C@@H](NC(=O)OCc2ccccc2)CC(=O)N2CCCC(CCOc3ccc(C)c(c3)CNC1=O)C2)c1ccccc1` (stereo partly drawn) [Compound 513, methyl (((12R)-12-(((benzyloxy)carbonyl)amino)-5^4-methyl-8,11,14-trioxo-4-oxa-7,10-diaza-1(3,1)-piperidina-5(1,3)-benzenacyclotetradecaphane-9-yl)methyl)(phenyl)carbamate], the IC50 in experiment [1], in experiment [2] and in experiment [3] was less than 100 nM each time.
As to `Cc1ccc2cc1CNC(=O)[C@H](CCc1ccccc1)NC(=O)[C@@H](NC(=O)Cc1cc(O)on1)CC(=O)N1CCCC(CCO2)C1` (stereo partly drawn) [Compound 335, 2-(5-hydroxyisoxazol-3-yl)-N-((9S,12S)-5^4-methyl-8,11,14-trioxo-9-phenethyl-4-oxa-7,10-diaza-1(3,1)-piperidina-5(1,3)-benzenacyclotetradecaphane-12-yl)acetamide], the IC50 in experiment [1], in experiment [2] and in experiment [3] was less than 100 nM each time.
In the case of `COC(=O)N(CC1NC(=O)[C@@H](NC(C)=O)CC(=O)N2CCCC(CCOc3ccc(C)c(c3)CNC1=O)C2)c1ccccc1` (stereo partly drawn) [Compound 560, methyl (((12S)-12-acetamido-5^4-methyl-8,11,14-trioxo-4-oxa-7,10-diaza-1(3,1)-piperidina-5(1,3)-benzenacyclotetradecaphane-9-yl)methyl)(phenyl)carbamate], the IC50 in experiment [1] was less than 100 nM; in experiment [2], less than 100 nM; in experiment [3], 100 to 500 nM.
`CCOC(=O)N[C@H]1CC(=O)N2CCCC(CCOc3ccc(C)c(c3)CNC(=O)C(c3cnn(C)c3)NC1=O)C2` (stereo partly drawn) [Compound 363, Ethyl ((12S)-5^4-methyl-9-(1-methyl-1H-pyrazol-4-yl)-8,11,14-trioxo-4-oxa-7,10-diaza-1(3,1)-piperidina-5(1,3)-benzenacyclotetradecaphane-12-yl)carbamate]: the IC50 in experiment [1], in experiment [2] and in experiment [3] was less than 100 nM each time.
Turning to `Cc1nc(C2NC(=O)[C@@H](NC(=O)OCc3ccccc3)CC(=O)N3CCCC(CCOc4ccc(C)c(c4)CNC2=O)C3)co1` (stereo partly drawn) [Compound 512, benzyl ((12S)-5^4-methyl-9-(2-methyloxazol-4-yl)-8,11,14-trioxo-4-oxa-7,10-diaza-1(3,1)-piperidina-5(1,3)-benzenacyclotetradecaphane-12-yl)carbamate], the IC50 in experiment [1], in experiment [2] and in experiment [3] was less than 100 nM each time.
As for `Cc1ccc2cc1CNC(=O)[C@H](CCc1ccccc1)NC(=O)[C@@H](NC(=O)OCc1ccccc1)CCCC(=O)N1CCC(CCO2)C1` (stereo partly drawn) [Compound 352, benzyl ((9S, 12S)-5^4-methyl-8,11,16-trioxo-9-phenethyl-4-oxa-7,10-diaza-1(3,1)-pyrrolidina-5(1,3)-benzenacyclohexadecaphane-12-yl)carbamate], the IC50 in experiment [1] was 100 to 500 nM; in experiment [2], less than 100 nM; in experiment [3], less than 100 nM.
For `Cc1ccc2cc1CNC(=O)[C@H](CCc1ccccc1)NC(=O)[C@@H](NC(=O)OCc1ccccc1)CCCC(=O)N1CCCC3(CC(C3)O2)C1` [Compound 283, benzyl ((7S,10S)-34-methyl-6,9,14-trioxo-7-phenethyl-2-oxa-5,8-diaza-15(3,1)-piperidina-3(1,3)-benzena-1(1,3)-cyclobutanapentadecaphane-10-yl)carbamate], the IC50 in experiment [1] was in the range of 500 to 1000 nM; in experiment [2] it was 500 to 1000 nM; in experiment [3], 1000 to 5000 nM.
Take `Cc1ccc2cc1CNC(=O)[C@H](CCc1ccccc1)NC(=O)[C@@H](NC(=O)OCc1ccccc1)CC(=O)N1CC(C)CC(CCO2)C1` (stereo partly drawn) [Compound 337, benzyl ((9S,12S)-1^5,5^4-dimethyl-8,11,14-trioxo-9-phenethyl-4-oxa-7,10-diaza-1(3,1)-piperidina-5(1,3)-benzenacyclotetradecaphane-12-yl)carbamate]: the IC50 in experiment [1] was less than 100 nM; in experiment [2] it was less than 100 nM; in experiment [3] it was 100 to 500 nM.
With `Cc1ccc2cc1CNC(=O)[C@H](CCc1ccccc1)NC(=O)[C@@H](NC(=O)OCc1ccccc1)CC(=O)N1CC(CCO2)CC2CCCCC21` (stereo partly drawn) [Compound 314, benzyl ((9S,12S)-5^4-methyl-8,11,14-trioxo-9-phenethyl-11,12,13,14,14a,15,16,17,18,18a-decahydro-4-oxa-7,10-diaza-1(3,1)-quinolina-5(1,3)-benzenacyclotetradecaphane-12-yl)carbamate], the IC50 in experiment [1], in experiment [2] and in experiment [3] was less than 100 nM each time.
Turning to `CC(=O)N[C@H]1CC(=O)N2CCCC(CCOc3ccc(C)c(c3)CNC(=O)C(c3cnn(CCC(=O)O)c3)NC1=O)C2` (stereo partly drawn) [Compound 567, 3-(4-((12S)-12-acetamido-5^4-methyl-8,11,14-trioxo-4-oxa-7,10-diaza-1(3,1)-piperidina-5(1,3)-benzenacyclotetradecaphane-9-yl)-1H-pyrazol-1-yl)propanoic acid], the IC50 in experiment [1], in experiment [2] and in experiment [3] was less than 100 nM each time.
Regarding `CC(=O)N[C@H]1CC(=O)N2CCCC(CCOc3ccc(C)c(c3)CNC(=O)C(CCc3ccncc3)NC1=O)C2` (stereo partly drawn) [Compound 551, N-((12S)-5^4-methyl-8,11,14-trioxo-9-(2-(pyridin-4-yl)ethyl)-4-oxa-7,10-diaza-1(3,1)-piperidina-5(1,3)-benzenacyclotetradecaphane-12-yl)acetamide], the IC50 in experiment [1], in experiment [2] and in experiment [3] was less than 100 nM throughout.
`Cc1ccc2cc1CNC(=O)[C@H](CCc1ccccc1)NC(=O)[C@@H](NC(=O)Cc1cnc(N)s1)CC(=O)N1CCCC(CCO2)C1` (stereo partly drawn) [Compound 311, 2-(2-aminothiazol-5-yl)-N-((9S,12S)-5^4-methyl-8,11,14-trioxo-9-phenethyl-4-oxa-7,10-diaza-1(3,1)-piperidina-5(1,3)-benzenacyclotetradecaphane-12-yl)acetamide]: the IC50 in experiment [1], in experiment [2] and in experiment [3] was less than 100 nM each time.
Regarding `CCOC(C(=O)N[C@H]1CC(=O)N2CCCC(CCOc3ccc(C)c(c3)CNC(=O)[C@H](CCc3ccccc3)NC1=O)C2)c1ccc(N)cc1` (stereo partly drawn) [Compound 345, 2-(4-aminophenyl)-2-ethoxy-N-((9S,12S)-5^4-methyl-8,11,14-trioxo-9-phenethyl-4-oxa-7,10-diaza-1(3,1)-piperidina-5(1,3)-benzenacyclotetradecaphane-12-yl)acetamide], the IC50 was less than 100 nM in experiment [1], less than 100 nM in experiment [2] and 100 to 500 nM in experiment [3].
As to `CC(=O)N[C@H]1CC(=O)N2CCCC(CCOc3ccc(C)c(c3)CNC(=O)C(CCC3CCN(C(C)=O)CC3)NC1=O)C2` (stereo partly drawn) [Compound 338, N-((12S)-9-(2-(1-acetylpiperidin-4-yl)ethyl)-5^4-methyl-8,11,14-trioxo-4-oxa-7,10-diaza-1(3,1)-piperidina-5(1,3)-benzenacyclotetradecaphane-12-yl)acetamide], the IC50 was less than 100 nM in experiment [1], less than 100 nM in experiment [2] and 100 to 500 nM in experiment [3].
